Non-standard residues stand in square brackets, D forms with d. Residues, ends and D or L forms follow the SMILES beside them.
Columns and labels:
[1] = Immunogenicity, ELISA of anti-M1-21 antibodies in serum; assay type: in vivo, mouse; details: ICR/JCL mice, 30 mg/kg/week × 4 weeks I.P., serum Week 2 to Week 8, 1:1000, ELISA 492 nm; except at Week 4
Protocol: (§1) One week later, the animals’ different organs were harvested and subjected to tissue sectioning and H&E staining. Photos were taken by inverted microscope (400×, Nikon TE2000). […] The mice’s diet and activity were observed continuously for 14 days. […] Water and PBS were used as hemolysis positive and negative controls, respectively. The absorbance of the samples was measured at 540 nm and used to calculate the Hemolysis rate % = [(OD Sample - OD Negative) / (OD Positive - OD Negative)] × 100%. E Immunogenicity analysis of M1-21. […] Blood samples were collected from mice at different time points (Week 2 to Week 8) and the absorption of anti-M1-21 antibody in serum (1:1000 dilution) was measured by ELISA. HRP-conjugated anti-mouse IgG was used as an ELISA secondary antibody.
Hemolysis assays were performed with fresh mouse blood collected and dispersed in normal saline (NaCl 0.9%) at 10% (v/v). […] Sterile double distilled water and PBS were used as positive and negative controls, respectively. Immunogenicity of M1-21 was detected by ELISA in mice. […] Blood samples were collected from mice at different time points (Week 2 to Week 8). […] ELISA plates were washed twice with PBS and blocked with 3% bovine serum albumin for 2 h. […] Absorption was measured at 492 nm.

[2] = molecular target: T1, mouse Foxm1 (Mus musculus, UniProt O08696); experiment: Biotin-peptide Pulldown in 4T1 cell lysates; assay type: binding; details: biotin-labeled, 20 µM, 4T1 cell lysates (500 µg); Fig. S18B
T1 construct: endogenous in cells; host or cells: 4T1 mouse breast cancer cell lysate

[3] = test system: TCF/LEF-binding promoter; experiment: Dual luciferase reporter, TCF/LEF-binding promoter; details: HEK-293T; 5, 10, 20 µM for 24 h; n = 3
Protocol: (§2) C Reporter plasmids containing the luciferase gene downstream of the 6×FOXM1 binding sequence (6×FOXM1 Binding-Luc, 0.4 µg) or the − 1.8 kb CDC25B promoter (CDC25B pro(-1.8 kb)-Luc, 0.4 µg) were co-transfected with pCMV-FOXM1 (0.6 µg) into HEK-293T cells, plus pRL-CMV plasmid (20 ng/well) as a loading control. […] Then cell lysates were prepared and used for the measurement of dual Luciferase activities. Number of repetitions = 3. […] F Reporter plasmids containing the luciferase gene downstream of the − 1.4 kb PLK1 promoter (PLK1 pro(-1.4 kb)-Luc, 0.4 µg) were co-transfected with pCMV-FOXM1 (0.6 µg) into HEK-293T cells, plus pRL-CMV plasmid (20 ng/well) as loading control. […] Then cell lysates were prepared and used to measure dual Luciferase activity. Number of repetitions = 3.
(§3) HEK-293T cells (1×10^5 cells/well in 12-well plates) were transfected (EZ Trans, LIFE iLAB BIO, China) with certain luciferase reporter vectors (0.4 µg) and expression vector (0.6 µg) (or control plasmid (0.6 µg)). pRL-CMV plasmid (20 ng) was used as loading control for each transfection. 8 Hours after transfection, the medium was replaced and inhibitory peptides (or control peptide) with different concentrations were added. Finally, luciferase activity was measured 48 hours later with the Dual luciferase Assay system (Promega, USA) according to the manufacturer's instructions.

[4] = molecular target: FOXM1:LIN9 or FOXM1: B-MYB (Homo sapiens, UniProt Q08050); experiment: Co-IP in 231-Flag-FOXM1-Ind cells; details: 10, 20 µM for 6 h, dose-dependent
Protocol: (§4) Cell lysates (500 µg) were extracted and incubated with anti-Flag magnetic beads to pull down Flag-FOXM1/proteins complexes. […] 5% of cell lysates (25 µg) were used as input controls.
(§5) For Co-IP, IP lysate buffer was used to extract total protein. 500 µg protein lysates were incubated with 20 µl of Anti-Flag Magnetic Beads (Bimake, USA) for Flag-FOXM1 proteins at 4 °C for 3 h. The beads were washed 5 times with pre-cooled 1×PBS and subjected to Western blotting.

[5] = In vivo imaging of distribution of ICG-labeled peptide; parameters: species or system mouse; details: ICG-labeled M1-21, 30 mg/kg tail vein, wild-type ICR/JCL mice; IVIS imaging 0.5-24 h
[6] = molecular target: truncated FOXM1 recombinant proteins tagged by GST (Homo sapiens, UniProt Q08050); experiment: Pulldown of GST-tagged truncated FOXM1 recombinant proteins; details: Biotin-M1-21 20 µM, recombinant protein 100 µg; Ponceau S
Target sequence in this assay (Q08050 1-138): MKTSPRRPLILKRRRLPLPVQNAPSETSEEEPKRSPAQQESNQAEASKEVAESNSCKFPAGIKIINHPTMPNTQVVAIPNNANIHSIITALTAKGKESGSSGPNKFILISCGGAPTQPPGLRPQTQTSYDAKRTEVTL
Protocol: (§6) The recombinant proteins in the samples were separated by PAGE-gel and detected with Ponceau S staining solution (marked by *). 10% of recombinant proteins (10 µg) were used as input controls. […] Experiments were repeated three times with similar results. C Reporter plasmids containing the luciferase gene downstream of the 6×FOXM1 binding sequence (6×FOXM1 Binding-Luc, 0.4 µg) or the − 1.8 kb CDC25B promoter (CDC25B pro(-1.8 kb)-Luc, 0.4 µg) were co-transfected with pCMV-FOXM1 (0.6 µg) into HEK-293T cells, plus pRL-CMV plasmid (20 ng/well) as a loading control. […] Then cell lysates were prepared and used for the measurement of dual Luciferase activities. Number of repetitions = 3. […] Cell lysates (500 µg) were extracted and incubated with anti-Flag magnetic beads to pull down Flag-FOXM1/proteins complexes. The levels of Flag-FOXM1 and PLK1 proteins in the samples were detected by Western blotting. 5% of cell lysates (25 µg) were used as input controls. E Flag-FOXM1, LIN9, and B-MYB protein levels in panel D samples were detected by Western blotting. F Reporter plasmids containing the luciferase gene downstream of the − 1.4 kb PLK1 promoter (PLK1 pro(-1.4 kb)-Luc, 0.4 µg) were co-transfected with pCMV-FOXM1 (0.6 µg) into HEK-293T cells, plus pRL-CMV plasmid (20 ng/well) as loading control. […] Then cell lysates were prepared and used to measure dual Luciferase activity. Number of repetitions = 3. […] I TCF/LEF Binging-Luc reporter plasmid (0.4 µg) was co-transfected with pCMV-FOXM1 (0.6 µg) into HEK-293T cells, plus pRL-CMV plasmid (20 ng/well) as loading control. […] Then cell lysates were prepared and used to measure dual Luciferase activity. Number of repetitions = 3. […] The mRNA levels of PLK1, CDC25B, and Vimentin (VIM) were measured by qPCR. GAPDH was used as a loading control. […] The protein levels of PLK1, CDC25B, and Vimentin (VIM) were measured by Western blotting. β-actin was used as a loading control.
(§7) The magnetic beads were rinsed 5 times with pre-cooled 1×PBS, then the protein loading buffer was added, and the proteins were denatured at 95°C for 10 minutes. […]

[7] = molecular target: truncated FOXM1 recombinant proteins tagged by GST (Homo sapiens, UniProt Q08050); experiment: as above; details: Biotin-M1-21 20 µM, recombinant protein 100 µg; Ponceau S; remark: listed apart in the source
Target sequence in this assay (Q08050 221-353 isoform Q08050-2): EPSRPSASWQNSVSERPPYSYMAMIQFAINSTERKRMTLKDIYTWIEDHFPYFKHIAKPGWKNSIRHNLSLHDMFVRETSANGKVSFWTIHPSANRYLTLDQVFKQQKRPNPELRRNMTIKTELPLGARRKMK
Protocol: as §6, §7

[8] = molecular target: truncated FOXM1 recombinant proteins tagged by GST (Homo sapiens, UniProt Q08050); experiment: as above; details: Biotin-M1-21 20 µM, recombinant protein 100 µg; Ponceau S; remark: listed apart in the source
Target sequence in this assay (Q08050 703-763): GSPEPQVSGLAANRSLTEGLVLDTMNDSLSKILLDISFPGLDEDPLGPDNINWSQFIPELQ
Protocol: as §6, §7

[9] = molecular target: interaction between FOXM1 and β-catenin (Homo sapiens, UniProt Q08050); experiment: Co-IP in 231-Flag-FOXM1-Ind cells; details: 10, 20 µM for 6 h
Protocol: as §4, §5

[10] = test system: MDA-MB-231 cells; experiment: Wound Healing assay; details: MDA-MB-231, 10 µM for 36 h; versus M1-21mut; n = 3
[11] = H&E staining of organs after repeated injection; assay type: in vivo, mouse; details: ICR/JCL mice, 30 mg/kg intraperitoneal once every two days for three weeks
Protocol: as §1

[12] = test system: − 1.4 kb promoter of PLK1; experiment: Dual luciferase reporter, CHR-containing promoter; details: HEK-293T, PLK1 pro(-1.4 kb)-Luc with pCMV-FOXM1; 5, 10, 20 µM for 24 h; n = 3
Protocol: as §2, §3

[13] = test system: spontaneous breast cancers; experiment: Spontaneous breast cancer FVB/N MMTV-PyVT mice
Protocol: B Cancer tissue was harvested on Day 29 for imaging. The weight of cancer tissue was measured for GraphPad analysis. C The representative sections of the cancer samples of panel A were immunostained with anti-KI-67 antibody (1:200), and anti-CDC25B antibody (1:200) followed by microscope imaging (200×, Nikon TE2000). Scale bar: 200 μm.
FVB/N-Tg(MMTV-PyVT)634Mul/J transgenic mice [46] were purchased from The Jackson Laboratory (Bar Harbor, ME, USA). […] The mice were photographed every week thereafter. Cancer tissue from the animals was harvested on Day 29. The weight of the total cancer tissue from each mouse was measured and immunostaining sections of the cancer sample were performed for selected proteins.
The mice were imaged at different time points after treatment (Week 0, 1, 2, and 3). The number of tumors observed in each mouse was counted.

[14] = test system: MDA-MB-231 engrafted tumors; experiment: MDA-MB-231 tumor-engrafted BALB/c nude mice
Protocol: F BALB/c nude mice (female, 6 weeks old) were subcutaneously injected with MDA-MB-231 cells (1 × 10^6 cells/mouse). […] The volume of engrafted tumors was measured every two days and growth curves were obtained at the end of the experiment. The tumor volume (V) was calculated by: V = length × diameter^2 × 1/2. G Images and weight of engrafted tumors on Day 19. […] Number of repetitions = 3.
BALB/c nude mice and BALB/c wild-type mice (female, 6 weeks old) were purchased from Hunan SJA Laboratory Animal Co., Ltd. (Changsha, China). […] BALB/c nude mice were injected subcutaneously with MDA-MB-231 cells (1 × 10^6 cell/mouse). […] Tumor size was measured every two days. The tumor volume (V) was calculated by: V = length × diameter^2 × 1/2. Cancer tissue from the animals was harvested for imaging and weighing on Day 19.
B The lysates of the harvested cancer tissues were obtained and the protein levels of FOXM1, CDC25B, and PLK1 were detected by Western blotting. β-actin was used as a loading control. ImageJ software was used to calculate the gray value of the bands, and each point represented the value of protein content in the samples.

[15] = test system: MDA-MB-231 cells; experiment: mRNA and protein levels of marker and target genes (qPCR, Western blotting)
Protocol: The levels of mRNA or protein of E-cadherin (E-cad), Vimentin (VIM), and N-cadherin (N-cad) were measured by qPCR or Western blotting, respectively. GAPDH or β-actin was used as a loading control for mRNA or protein. mRNA values represented the mean ± SD of three replicates, and significance was calculated using unpaired t test. *P < 0.05; **P < 0.01; ***P < 0.001
The mRNA levels of PLK1, CDC25B, and Vimentin (VIM) were measured by qPCR. GAPDH was used as a loading control. […] The protein levels of PLK1, CDC25B, and Vimentin (VIM) were measured by Western blotting. β-actin was used as a loading control.
FOXM1 mRNA was detected by qPCR. GAPDH was used as a loading control.

[16] = molecular target: FOXM1/DNA complex (Homo sapiens, UniProt Q08050); experiment: Electrophoretic Mobility Shift Assays (EMSAs); assay type: biochemical; details: recombinant FOXM1 2 µM, FAM-labeled DNA probe 50 nM, M1-21 0.5, 1, 2 µM
Protocol: A FAM-labeled DNA probe (50 nM) was mixed with recombinant FOXM1 protein (2 µM) for EMSAs. […] The specificity of FOXM1/DNA complex formation was shown using 100× unlabeled DNA probes (cold probes, 5000 nM). Reactions were resolved in 4% native polyacrylamide gel electrophoresis in 0.5×TBE and visualized with a Kodak 4000 MM Imaging System (EX: 465 nm, EM: 535 nm). B The docking of P22 to FOXM1 DNA Binding domain (DBD, PDB ID 3G73) was created by Rosetta FlexPepDock and PyMOL. Left, the interface of peptide-protein interaction, peptide was shown in cyan and FOXM1 DBD was shown according to its electrostatic potential. Right, hydrogen bonds were formed by residues (blue from peptide and black from FOXM1 DBD) at the interface of peptide and protein interaction.
The double-strand DNA (dsDNA) probe was synthesized by Sangon Co., Ltd. (Shanghai, China). Protein (2 µM) was incubated with FAM-labeled dsDNA probe (50 nM) in binding buffer (20 mM Tris-Cl, 50 mM KCl, 0.5 mM EDTA, 0.2 mM DTT, 10% glycerol, pH 7.6) for 30 min on ice. […] The reactions were resolved in 4% native polyacrylamide gel electrophoresis in 0.5×TBE and visualized with Kodak 4000 MM Imaging System (Kodak, USA) (EX: 465 nm, EM: 535 nm for FAM). Sequence information is available in Supplementary Table S3.

[17] = 20 mg/kg intraperitoneal once daily for 28 days, Day 29
[18] = MDA-MB-231, 10 µM, 24 h, qPCR, Western blotting

T1 sequence (O08696 whole entry): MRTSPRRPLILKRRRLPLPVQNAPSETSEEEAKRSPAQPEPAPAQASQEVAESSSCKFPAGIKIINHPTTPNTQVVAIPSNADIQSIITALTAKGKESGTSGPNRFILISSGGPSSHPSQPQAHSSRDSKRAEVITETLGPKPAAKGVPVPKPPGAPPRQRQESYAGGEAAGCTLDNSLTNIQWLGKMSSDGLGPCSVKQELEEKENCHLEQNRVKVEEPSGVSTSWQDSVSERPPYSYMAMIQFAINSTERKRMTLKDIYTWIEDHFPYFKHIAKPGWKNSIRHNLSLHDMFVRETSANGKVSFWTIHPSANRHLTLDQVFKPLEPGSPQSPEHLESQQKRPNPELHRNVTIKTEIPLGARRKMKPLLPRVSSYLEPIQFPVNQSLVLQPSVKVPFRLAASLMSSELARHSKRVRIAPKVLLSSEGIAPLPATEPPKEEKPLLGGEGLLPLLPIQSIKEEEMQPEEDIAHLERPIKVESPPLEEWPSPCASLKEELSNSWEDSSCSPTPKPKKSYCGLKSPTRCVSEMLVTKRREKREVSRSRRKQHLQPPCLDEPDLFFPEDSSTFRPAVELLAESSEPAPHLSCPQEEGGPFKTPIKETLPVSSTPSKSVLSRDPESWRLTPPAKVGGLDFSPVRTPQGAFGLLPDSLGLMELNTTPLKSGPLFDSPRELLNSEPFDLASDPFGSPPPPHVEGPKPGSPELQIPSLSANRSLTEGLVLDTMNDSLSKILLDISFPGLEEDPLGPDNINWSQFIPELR
Sequence of interaction between FOXM1 and β-catenin (Q08050 1-748 isoform Q08050-2): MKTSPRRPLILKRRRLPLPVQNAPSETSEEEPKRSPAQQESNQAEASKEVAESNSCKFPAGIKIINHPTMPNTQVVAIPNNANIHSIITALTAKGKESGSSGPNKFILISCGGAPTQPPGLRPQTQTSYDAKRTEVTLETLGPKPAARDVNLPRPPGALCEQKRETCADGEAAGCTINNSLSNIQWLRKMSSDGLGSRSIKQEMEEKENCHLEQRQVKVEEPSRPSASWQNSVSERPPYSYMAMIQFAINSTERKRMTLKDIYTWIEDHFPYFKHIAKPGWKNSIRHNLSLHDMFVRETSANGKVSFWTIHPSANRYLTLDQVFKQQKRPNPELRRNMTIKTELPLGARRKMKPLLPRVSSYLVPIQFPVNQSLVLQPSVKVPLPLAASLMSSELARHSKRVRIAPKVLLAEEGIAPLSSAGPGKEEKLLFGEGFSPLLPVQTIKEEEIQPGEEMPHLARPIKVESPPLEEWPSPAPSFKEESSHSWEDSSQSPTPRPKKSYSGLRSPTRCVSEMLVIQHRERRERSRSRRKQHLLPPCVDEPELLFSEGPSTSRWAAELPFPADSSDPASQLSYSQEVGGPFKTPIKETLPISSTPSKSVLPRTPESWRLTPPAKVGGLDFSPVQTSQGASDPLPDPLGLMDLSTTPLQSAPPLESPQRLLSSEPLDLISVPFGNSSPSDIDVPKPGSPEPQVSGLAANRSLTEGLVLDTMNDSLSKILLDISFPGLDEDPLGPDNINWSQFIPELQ
Sequence of FOXM1/DNA complex (Q08050 1-748 isoform Q08050-2, one chain of several): as the sequence (Q08050 1-748 isoform Q08050-2) above
Sequence of FOXM1:LIN9 or FOXM1: B-MYB (Q08050 1-748 isoform Q08050-2): as above

## CC[C@@H](C)[C@@H](NC(=O)[C@@H](CC(C)C)NC(=O)[C@H](NC(=O)[C@@H](CO)NC(=O)[C@@H](CS)NC(=O)CNC(=O)CNC(=O)[C@@H](C)NC(=O)[C@H]1CCCN1C(=O)[C@H](NC(=O)[C@@H](CCC(N)=O)NC(=O)[C@H]1CCCN1C(=O)[C@H]1CCCN1C(=O)CNC(=O)[C@@H](CC(C)C)NC(=O)[C@@H](CCCNC(=N)N)NC(=O)[C@H]1CCCN1C(=O)[C@@H](CCC(N)=O)NC(=O)[C@H](NC(=O)[C@H](N)CCC(N)=O)[C@H](C)O)[C@H](C)O)[C@H](C)CC)C(=O)N[C@H](Cc1ccccc1)C(=O)N[C@H](CCCNC(=N)N)C(=O)N[C@H](CCCNC(=N)N)C(=O)N[C@H](CCCNC(=N)N)C(=O)N[C@H](CCC(N)=O)C(=O)N[C@H](CCCNC(=N)N)C(=O)N[C@H](CCCNC(=N)N)C(=O)N[C@H](CCCCN)C(=O)N[C@H](CCCCN)C(=O)N[C@H](CCCNC(=N)N)C(=O)NCC(=O)O [M1-21] (H-[dQ][dT][dQ][dP][dR][dL]G[dP][dP][dQ][dT][dP][dA]GG[dC][dS][dI][dL][dI][dF][dR][dR][dR][dQ][dR][dR][dK][dK][dR]G-OH; N-terminus and C-terminus assumed)
[1]
  M1-21-specific antibody generation in serum: relatively low levels
[2]
  binding to endogenous mouse Foxm1 in Pulldown: could bind
[3]
  β-catenin-mediated stimulation on the TCF/LEF-binding promoter (luciferase): abolished β-catenin-mediated stimulation
[4]
  interaction of FOXM1:LIN9 or FOXM1: B-MYB (Co-IP): disrupted the interaction
[5]
  period of stay in the body (stability in mice): > 15 h
[6]
  binding to GST-FOXM1_1-138 in Pulldown: bound
[7]
  binding to GST-FOXM1_221-353 in Pulldown: bound
[8]
  binding to GST-FOXM1_688-748 in Pulldown: bound
[9]
  interaction between FOXM1 and β-catenin (Co-IP): disrupted the interaction
[10]
  cell migration: inhibited
[11]
  morphological lesions in heart, liver, spleen, lung, and kidney (H&E): no obvious morphological lesions
[12]
  FOXM1-MuvB-mediated stimulation on the CHR-containing promoter (luciferase): abolished FOXM1-MuvB-mediated stimulation
[13]; [17]
  mice with therapeutic benefit, of the seven treated: six mice had obvious therapeutic benefits and even one mouse was cancer-free
  weight of total cancer tissue from each mouse: inhibited cancer progression
[13]; 20 mg/kg intraperitoneal once daily for 28 days, n = 7, versus PBS n = 4
  number of formed cancers: dramatically decreased
[13]; 20 mg/kg once daily for 28 days
  levels of KI-67 and CDC25B in cancer sections (immunostaining): dramatically down-regulated
[14]; BALB/c nude mice, 30 mg/kg intraperitoneal once every two days, Day 19, n = 6
  size and weight of engrafted tumors at the end of the experiment: significantly decreased
[14]; BALB/c nude mice, 30 mg/kg intraperitoneal once every two days, n = 6, versus PBS
  growth of engrafted tumors (tumor volume): growth inhibition of engrafted tumors
[14]; Western blotting of harvested cancer tissues, Fig. S12B
  levels of FOXM1, CDC25B and PLK1 in tumor samples: decreased levels
[15]; [18]
  levels of epithelial marker E-cadherin: increased
  levels of mesenchymal markers Vimentin and N-cadherin: decreased
[15]; MDA-MB-231, 20 µM for 24 h, versus M1-21mut
  mRNA and protein levels of PCNA and Cyclin B1: downregulated
[15]; MDA-MB-231, 20 µM, and spontaneously developed cancer tissues, Fig. S21
  levels (mRNA or protein) of FOXM1 itself: decrease the levels
[15]; MDA-MB-231, 20 µM, qPCR 24 h, Western blotting 1.5-36 h
  mRNA and protein levels of CDC25B, PLK1 and Vimentin: dramatically repressed the expression
[16]
  DNA binding ability of FOXM1 (EMSA): did not disturb
